In brackets after ≈: the same amount, converted by molar mass. Where two headings read alike, the source gives them in different places. Each block holds one compound with its values, some of them ahead of it.
Experiments:
[1] = set-up: method as in PMID 18501462, PMID 31458196; settings: between pH 3 and 8; cited from earlier work
[2] = PAMPA for evaluating the effect of formulation additives on TEL permeability; assay type: in vitro ADME; settings: for Pe: acceptor pH 7.4, 37°C
Experimental: Each well of the top (donor) compartment of 96-well […]™ PAMPA sandwich (Pion Inc., Billerica MA, USA) was coated with 4 μL of n-dodecane. Before forming the sandwich, the bottom (acceptor) plate was prefilled with 180 μL of pH = 7.4 Prisma^HT buffer. The donor plate was filled with 200 μL of FaSSIF buffer with pre-dissolved TEL and formulation additives. The resultant sandwich was incubated at 37°C, and both compartments were stirred at 60 μm (ABL) with Gut-Box™ (Pion Inc., Billerica MA, USA). After 30 min, the PAMPA sandwich was separated, and 100 μL of both the donor and acceptor compartments were transferred to UV plates (UV-star micro plate, clear, flat bottom, half area, Greiner Group AG, Kremsmünster, Austria). UV absorption (230–400 nm) was measured with Tecan Infinite M200 (Tecan Group Ltd., Mannedorf, Switzerland) driven by PAMPA Explorer software™ (Pion Inc., Billerica MA, USA). Three parallel measurements were performed, and the data were measured with six replicates on every single plate.
(§1) The flux across the membrane was calculated using the following equation: 1 Jt=Δn/A*Δt
(§2) where the flux (J) of a drug through the membrane is defined as the amount (n) of drug crossing a unit area (A) perpendicular to its flow per unit time (t). 2 Pe=J/CD where the Pe is the effective permeability of the drug and CD is donor concentration.
At first, an excipient screening on the PAMPA platform was carried out. The excipients of the available TEL formulations and commonly used standard excipients were involved in the investigation of API-excipient interaction. The concentration of the excipients was determined by referring the usual amount of additives in one tablet to 900 mL dissolution media. Due to the experimental differences in the applied doses, the flux data were considered misleading, and the permeability value was used since it is normalized by the donor concentration.

[3] = Solubility of TEL; assay type: physicochemical
[4] = Kinetic solubility in FaSSIF with pre-dissolved additives (in situ UV probes, ZIM); assay type: physicochemical; settings: 37 °C
Experimental: Note that in the context of this manuscript, solubility measured by this method will be called kinetic solubility because the form of the solid phase precipitating during these assays was not characterized. […] Ten milliliters of dissolution medium consisting of equilibrated fasted state simulated intestinal fluid (FaSSIF) buffer containing pre-dissolved additives was stirred at 200 rpm and held at 37°C by circulating water through a heating block mounted to a Pion μDISS™ profiler (Pion Inc., Billerica MA, USA). The stock solution was added in 20 μL aliquots to the dissolution medium. 1 M HCl was used to readjust the pH of the media after every addition of the stock solution. During and after addition of the stock solution, UV probes connected to a Pion Rainbow™ Dynamic Dissolution Monitor® system were used to detect changes in UV spectra, thus enabling the detection of precipitation, which provides information about the kinetic solubility limit.
The zero intercept method (ZIM) was implemented in the AuPRO™ software (Pion Inc., Billerica MA, USA), which was considered a suitable method for detecting the solid nanoparticles in solution. It can be noticed that the second derivative spectrum of a particular compound usually crosses the wavelength axis at specific wavelengths that we will call zero intercept method points or ZIM points (λZIM). The ZIM points are characteristic of the compound and are independent of the concentration. The second derivative values at λZIM are expected to be zero […] the compound is fully dissolved. After a critical concentration, solid particles appear in the solution, and a ZIM point shift can be observed. In case of TEL, the ZIM evaluation was carried out at a wavelength of 318 nm.

[5] = Small volume dissolution-permeation (MicroFLUX); assay type: in vitro ADME; settings: small scale; donor pH 1.6 converted to FaSSIF pH 6.5 after 30 min, acceptor pH 7.4, 37°C, calculated between 70 and 100 min
Experimental: as §1, §2
Electrospun formulations of TEL were tested using μFLUX (Pion Inc., Billerica MA, USA) apparatus which consists of a donor and an acceptor chamber separated by an artificial membrane (PVDF, polyvinylidenfluoride, 0.45 μm, 1.54 cm^2) impregnated with 25 μL n-dodecane to form a lipophilic barrier between the donor and acceptor chambers. In case of oral drug delivery, the donor chamber represents the stomach’s condition, while the 18 mL pH 7.4 buffer of acceptor chamber represents the blood circulation. The attempt was started in 16 mL pH 1.6 buffer solution; then after 30 min, media in the dissolution vessel was converted to FaSSIF (pH 6.5) by adding 4 mL of SIF concentrate. Both chambers were stirred at 250 rpm at 37°C to keep the thickness of the unstirred aqueous layer on minimum. In both chambers, the API concentration was followed by immersed UV probes connected to the Rainbow instrument (Pion Inc., Billerica MA, USA). The flux and permeability values were calculated using Eqs. (1) and (2) between 70 and 100 min. […]

[6] = Large volume dissolution-permeation (MacroFLUX); assay type: in vitro ADME; settings: large scale; donor SGF pH 1.6 converted to FaSSIF pH 6.5 after 30 min, acceptor pH 7.4, 37°C, calculated between 70 and 100 min
Experimental: Final dosage forms of TEL were tested using MacroFLUX^TM (Pion Inc., Billerica MA, USA). […] The flux and permeability values were calculated using Eqs. (1) and (2) between 70 and 100 min.
The MacroFLUX system equipped with in situ fiber optic concentration monitoring was used in this final investigation. The same media conversion protocol as in the case of small volume dissolution-permeation measurements was applied in the dissolution vessel [28]. Micardis, the brand formulation, and the pure amorphous drug were used as references.
Receiver chamber integrated with permeation membrane, overhead stirrer and fiber optic UV probe was inserted in the standard 900 mL vessel of USP 2 apparatus (Erweka DT 126 Dissolution Tester, Heusenstamm Germany). A filter-supported artificial membrane (hydrophobic PVDF, polyvinylidenfluoride, 0.45 μm pore size, 3.8 cm^2) impregnated with 50 μL of n-dodecane was separating the dissolution (donor) compartment from the receiver compartment containing 13 mL of pH 7.4 (Prisma^HT, Pion Inc.). The experiment began in 850 mL of pH 1.6 buffer simulating gastric conditions (SGF) on the donor side and then after 30 minutes media in the dissolution vessel was converted to fasted state simulated intestinal fluid (FaSSIF V1) (pH 6.5) by adding 212.5 mL of specially formulated concentrate containing SIF powder. […]

- Papp at 30 min ([2]; PAMPA, excipient-free TEL on the plate of the additive in that table row, FaSSIF donor, 37°C, read-out: Reference Pe): 1110 nm/s
- Pe ([2]; TEL with HMPC 2910 212 μg/mL in FaSSIF donor, 30 min): 1.22 10^−4 cm/sec
- Pe ([2]; TEL with HPMC-AS 212 μg/mL in FaSSIF donor, 30 min): 1.28 10^−4 cm/sec
- Pe ([2]; TEL with HPβCD 1386 μg/mL in FaSSIF donor, 30 min): 1.21 10^−4 cm/sec
- Pe ([2]; TEL with Lactose monohydrate 667 μg/mL in FaSSIF donor, 30 min): 1.39 10^−4 cm/sec
- Pe ([2]; TEL with Mannitol 667 μg/mL in FaSSIF donor, 30 min): 1.23 10^−4 cm/sec
- Pe ([2]; TEL with PVP K30 212 μg/mL in FaSSIF donor, 30 min): 1.31 10^−4 cm/sec
- Pe ([2]; TEL with PVP K90 212 μg/mL in FaSSIF donor, 30 min): 1.25 10^−4 cm/sec
- Pe ([2]; TEL with SDS 850 μg/mL in FaSSIF donor, 30 min): 0.83 10^−4 cm/sec
- Pe ([2]; TEL with Sorbitol 667 μg/mL in FaSSIF donor, 30 min): 1.42 10^−4 cm/sec
- Pe ([2]; TEL with Tween 80 0.45 μg/mL in FaSSIF donor, 30 min): 0.86 10^−4 cm/sec
- Reference Pe ([2]; excipient-free TEL on the plate of the additive in that table row, FaSSIF donor, 37°C, 30 min): 1.16 10^−4 cm/sec
- Solubility in 1 M NaOH solution ([3]; 1 M NaOH solution, aqueous): dissolves extremely well
- solubility ([3]; pH 6.5, crystalline TEL in FaSSIF media): < 0.001 mg/mL
- solubility kinetic ([4]; FaSSIF buffer with pre-dissolved additive, pH 6.5, aqueous with cosolvent or surfactant or cyclodextrin, TEL in FaSSIF with HPβCD 1386 μg/mL): 0.0375 mg/mL (≈ 72.9 µM)
- solubility kinetic ([4]; FaSSIF buffer with pre-dissolved additive, pH 6.5, aqueous with cosolvent or surfactant or cyclodextrin, TEL in FaSSIF with SDS 850 μg/mL): 0.0459 mg/mL (≈ 89.1 µM)
- solubility kinetic ([4]; FaSSIF buffer with pre-dissolved additive, pH 6.5, aqueous with cosolvent or surfactant or cyclodextrin, TEL in FaSSIF with Tween 80 0.45 μg/mL): 0.0643 mg/mL (≈ 125 µM)
- solubility kinetic ([4]; FaSSIF buffer with pre-dissolved additive, pH 6.5, fassif, TEL in FaSSIF with HMPC 2910 212 μg/mL): 0.0309 mg/mL (≈ 60 µM)
- solubility kinetic ([4]; FaSSIF buffer with pre-dissolved additive, pH 6.5, fassif, TEL in FaSSIF with HPMC-AS 212 μg/mL): 0.0341 mg/mL (≈ 66.3 µM)
- solubility kinetic ([4]; FaSSIF buffer with pre-dissolved additive, pH 6.5, fassif, TEL in FaSSIF with Lactose monohydrate 667 μg/mL): 0.0328 mg/mL (≈ 63.7 µM)
- solubility kinetic ([4]; FaSSIF buffer with pre-dissolved additive, pH 6.5, fassif, TEL in FaSSIF with Mannitol 667 μg/mL): 0.0397 mg/mL (≈ 77.1 µM)
- solubility kinetic ([4]; FaSSIF buffer with pre-dissolved additive, pH 6.5, fassif, TEL in FaSSIF with PVP K30 212 μg/mL): 0.0347 mg/mL (≈ 67.4 µM)
- solubility kinetic ([4]; FaSSIF buffer with pre-dissolved additive, pH 6.5, fassif, TEL in FaSSIF with PVP K90 212 μg/mL): 0.0344 mg/mL (≈ 66.8 µM)
- solubility kinetic ([4]; FaSSIF buffer with pre-dissolved additive, pH 6.5, fassif, TEL in FaSSIF with Sorbitol 667 μg/mL): 0.0307 mg/mL (≈ 59.7 µM)
- solubility kinetic ([4]; FaSSIF buffer, pH 6.5, fassif, TEL in FaSSIF, no additive (0 μg/mL)): 0.0373 mg/mL (≈ 72.4 µM)
SMILES: CCCc1nc2c(C)cc(-c3nc4ccccc4n3C)cc2n1Cc1ccc(-c2ccccc2C(=O)O)cc1 [TEL, telmisartan]
- solubility [1]: practically insoluble

- Pe [5]: 1.19 10^−4 cm/sec
- Pe [6]: 1.03 10^−4 cm/sec
SMILES: CCCc1nc2c(C)cc(-c3nc4ccccc4n3C)cc2n1Cc1ccc(-c2ccccc2C(=O)O)cc1 [Tel_amorphous, telmisartan]

Source: publication PMC8816521, “Flux-Based Formulation Development—A Proof of Concept Study” (The AAPS Journal, 2022)
